Patent US7592345B2, “Piperazine and [1,4]diazepan derivatives as NK antagonists” (Hoffmann-La Roche Inc., priority 2007, dated 2009)

target: T1, recombinant human NK3 receptor (Homo sapiens, UniProt P29371); experiment: [3H]SR142801 competition binding assay; conditions: [3H]SR142801, membranes from HEK293 cells transiently expressing recombinant human NK3 receptor; read-out: hNK3 Ki
T1 construct: expressed in transfected cells; host or cells: HEK293 cells (transient expression), membranes
T1 sequence (P29371 1-465): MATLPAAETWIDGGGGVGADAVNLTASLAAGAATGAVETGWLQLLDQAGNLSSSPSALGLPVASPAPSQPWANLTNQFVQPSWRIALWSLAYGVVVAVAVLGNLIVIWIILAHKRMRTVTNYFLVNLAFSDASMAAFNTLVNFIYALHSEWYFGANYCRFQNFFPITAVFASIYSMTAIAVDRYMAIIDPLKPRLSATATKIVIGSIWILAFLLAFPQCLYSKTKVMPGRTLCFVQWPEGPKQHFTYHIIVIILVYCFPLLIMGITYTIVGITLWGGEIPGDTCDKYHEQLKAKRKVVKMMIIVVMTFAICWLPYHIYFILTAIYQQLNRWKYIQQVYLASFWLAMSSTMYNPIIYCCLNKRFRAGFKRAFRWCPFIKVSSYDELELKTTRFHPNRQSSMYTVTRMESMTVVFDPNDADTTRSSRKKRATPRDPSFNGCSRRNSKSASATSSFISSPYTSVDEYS
Experimental: [^3H]SR142801 Competition Binding Assay
hNK3 receptor binding experiment were performed using [^3H]SR142801 (Catalog No. TRK1035, specific activity: 74.0 Ci/mmol, Amersham, GE Healthcare UK limited, Buckinghamshire, UK) and membrane isolated from HEK293 cells transiently expressing recombinant human NK3 receptor. After thawing, the membrane homogenates were centrifuged at 48,000×g for 10 min at 4° C., the pellets were resuspended in the 50 mM Tris-HCl, 4 mM MnCl2, 1 μM phosphoramidon, 0.1% BSA binding buffer at pH 7.4 to a final assay concentration of 5 μg protein/well. For inhibition experiments, membranes were incubated with [^3H]SR142801 at a concentration equal to KD value of radioligand and 10 concentrations of the inhibitory compound (0.0003-10 μM) (in a total reaction volume of 500 μl) for 75 min at room temperature (RT). At the end of the incubation, membranes were filtered onto unitfilter (96-well white microplate with bonded GF/C filter preincubated 1 h in 0.3% PEI+0.3% BSA, Packard BioScience, Meriden, Conn.) with a Filtermate 196 harvester (Packard BioScience) and washed 4 times with ice-cold 50 mM Tris-HCl, pH 7.4 buffer. Nonspecific binding was measured in the presence of 10 μM SB222200 for both radioligands. The radioactivity on the filter was counted (5 min) on a Packard Top-count microplate scintillation counter with quenching correction after addition of 45 μl of microscint 40 (Canberra Packard S. A., Zürich, Switzerland) and shaking for 1 h. Inhibition curves were fitted according to the Hill equation: y=100/(1+(x/IC50)^nH), where nH=slope factor using Excel-fit 4 software (Microsoft). IC50 values were derived from the inhibition curve and the affinity constant (Ki) values were calculated using the Cheng-Prussoff equation Ki=IC50/(1+[L]/KD) where [L] is the concentration of radioligand and KD is its dissociation constant at the receptor, derived from the saturation isotherm. All experiments were performed in duplicate and the mean±standard error (SEM) of the individual Ki values was calculated.

Compound	Ki [µM]
CC(CCN1CCCN(S(C)(=O)=O)CC1)(C(=O)NCc1cc(C(F)(F)F)ccc1F)c1ccc(Cl)c(Cl)c1 (stereo not shown) [Example 118, 2-(3,4-Dichloro-phenyl)-N-(2-fluoro-5-trifluoromethyl-benzyl)-4-(4-methanesulfonyl-[1,4]diazepan-1-yl)-2-methyl-butyramide]	0.136
C[C@@H]1CN(CCC(C)(C(=O)NCc2cccc(OC(F)F)c2)c2ccc(Cl)c(Cl)c2)CCN1S(C)(=O)=O (stereo partly drawn) [Example 43, 2-(3,4-Dichloro-phenyl)-N-(3-difluoromethoxy-benzyl)-4-((R)-4-methanesulfonyl-3-methyl-piperazin-1-yl)-2-methyl-butyramide]	0.0999
C[C@H]1CN(CCC(C)(C(=O)NCc2ccc(OC(F)(F)F)cc2)c2ccc(Cl)c(Cl)c2)CCN1S(C)(=O)=O (stereo partly drawn) [Example 83, 2-(3,4-Dichloro-phenyl)-4-((S)-4-methanesulfonyl-3-methyl-piperazin-1-yl)-2-methyl-N-(4-trifluoromethoxy-benzyl)-butyramide]	0.0571
C[C@@H]1CN(CCC(C)(C(=O)NCc2ccc(Cl)c(F)c2)c2ccc(Cl)c(Cl)c2)CCN1S(C)(=O)=O (stereo partly drawn) [Example 52, N-(4-Chloro-3-fluoro-benzyl)-2-(3,4-dichloro-phenyl)-4-((R)-4-methanesulfonyl-3-methyl-piperazin-1-yl)-2-methyl-butyramide]	0.0464
CN(Cc1cccc(Cl)c1)C(=O)C(C)(CCN1CCN(S(C)(=O)=O)CC1)c1ccc(Cl)c(Cl)c1 (stereo not shown) [Example 10, N-(3-Chloro-benzyl)-2-(3,4-dichloro-phenyl)-4-(4-methanesulfonyl-piperazin-1-yl)-2,N-dimethyl-butyramide]	0.145
C[C@@H]1CN(CCC(C)(C(=O)N(C)Cc2ccc(Cl)cc2)c2ccc(Cl)c(Cl)c2)CCN1S(C)(=O)=O (stereo partly drawn) [Example 56, N-(4-Chloro-benzyl)-2-(3,4-dichloro-phenyl)-4-((R)-4-methanesulfonyl-3-methyl-piperazin-1-yl)-2,N-dimethyl-butyramide]	0.0265
CN(Cc1cccc(F)c1)C(=O)C(C)(CCN1CCN(S(C)(=O)=O)CC1)c1ccc(Cl)c(Cl)c1 (stereo not shown) [Example 24, 2-(3,4-Dichloro-phenyl)-N-(3-fluoro-benzyl)-4-(4-methanesulfonyl-piperazin-1-yl)-2,N-dimethyl-butyramide]	0.224
C[C@H]1CN(CC[C@](C)(C(=O)NCc2ccc(Cl)c(Cl)c2)c2ccc(Cl)c(Cl)c2)CCN1S(C)(=O)=O (single isomer, unassigned) [Example 93, (S or R)—N-(3,4-Dichloro-benzyl)-2-(3,4-dichloro-phenyl)-4-((R)-4-methanesulfonyl-3-methyl-piperazin-1-yl)-2-methyl-butyramide]	0.0192
Cc1ccc(CN(C)C(=O)C(C)(CCN2CCN(S(C)(=O)=O)[C@H](C)C2)c2ccc(Cl)c(Cl)c2)cc1 (stereo partly drawn) [Example 36, 2-(3,4-Dichloro-phenyl)-4-((R)-4-methanesulfonyl-3-methyl-piperazin-1-yl)-2,N-dimethyl-N-(4-methyl-benzyl)-butyramide]	0.0508
CN(Cc1cccc(Cl)c1)C(=O)C(C)(CCN1CCCN(S(C)(=O)=O)CC1)c1ccc(Cl)c(Cl)c1 (stereo not shown) [Example 103, N-(3-Chloro-benzyl)-2-(3,4-dichloro-phenyl)-4-(4-methanesulfonyl-[1,4]diazepan-1-yl)-2,N-dimethyl-butyramide]	0.0418
C[C@H]1CN(CCC(C)(C(=O)NCc2ccc(Cl)c(C(F)(F)F)c2)c2ccc(Cl)c(Cl)c2)CCN1S(C)(=O)=O (stereo partly drawn) [Example 84, N-(4-Chloro-3-trifluoromethyl-benzyl)-2-(3,4-dichloro-phenyl)-4-((S)-4-methanesulfonyl-3-methyl-piperazin-1-yl)-2-methyl-butyramide]	0.0452
CC(CCN1CCN(S(C)(=O)=O)CC1)(C(=O)NCc1ccc(C#N)cc1)c1ccc(Cl)c(Cl)c1 (stereo not shown) [Example 18, N-(4-Cyano-benzyl)-2-(3,4-dichloro-phenyl)-4-(4-methanesulfonyl-piperazin-1-yl)-2-methyl-butyramide]	0.434
C[C@@H]1CN(CCC(C)(C(=O)N(C)Cc2ccc(C(F)(F)F)cc2)c2ccc(Cl)c(Cl)c2)CCN1S(C)(=O)=O (stereo partly drawn) [Example 55, 2-(3,4-Dichloro-phenyl)-4-((R)-4-methanesulfonyl-3-methyl-piperazin-1-yl)-2,N-dimethyl-N-(4-trifluoromethyl-benzyl)-butyramide]	0.0169
CC(NC(=O)C(C)(CCN1CCN(S(C)(=O)=O)[C@@H](C)C1)c1ccc(Cl)c(Cl)c1)c1ccc(Cl)cc1 (stereo partly drawn) [Example 77, N-[1-(4-Chloro-phenyl)-ethyl]-2-(3,4-dichloro-phenyl)-4-((S)-4-methanesulfonyl-3-methyl-piperazin-1-yl)-2-methyl-butyramide]	0.0674
Cc1ccc(CN(C)C(=O)C(C)(CCN2CCN(S(C)(=O)=O)CC2)c2ccc(Cl)c(Cl)c2)cc1 (stereo not shown) [Example 22, 2-(3,4-Dichloro-phenyl)-4-(4-methanesulfonyl-piperazin-1-yl)-2,N-dimethyl-N-(4-methyl-benzyl)-butyramide]	0.0774
C[C@H]1CN(CCC(C)(C(=O)NCc2ccc(Cl)c(F)c2)c2ccc(Cl)c(Cl)c2)CCN1S(C)(=O)=O (stereo partly drawn) [Example 82, N-(4-Chloro-3-fluoro-benzyl)-2-(3,4-dichloro-phenyl)-4-((S)-4-methanesulfonyl-3-methyl-piperazin-1-yl)-2-methyl-butyramide]	0.0942
CC(CCN1CCCN(S(C)(=O)=O)CC1)(C(=O)NCc1cc(C(F)(F)F)cc(C(F)(F)F)c1)c1ccc(Cl)c(Cl)c1 (stereo not shown) [Example 107, N-(3,5-Bis-trifluoromethyl-benzyl)-2-(3,4-dichloro-phenyl)-4-(4-methanesulfonyl-[1,4]diazepan-1-yl)-2-methyl-butyramide]	0.209
C[C@@H]1CN(CCC(C)(C(=O)NCc2ccc(C(F)(F)F)cc2)c2ccc(Cl)c(Cl)c2)CCN1S(C)(=O)=O (stereo partly drawn) [Example 45, 2-(3,4-Dichloro-phenyl)-4-((R)-4-methanesulfonyl-3-methyl-piperazin-1-yl)-2-methyl-N-(4-trifluoromethyl-benzyl)-butyramide]	0.0333
CN(Cc1ccc(C(F)(F)F)cc1)C(=O)C(C)(CCN1CCN(S(C)(=O)=O)CC1)c1ccc(Cl)c(Cl)c1 (stereo not shown) [Example 28, 2-(3,4-Dichloro-phenyl)-4-(4-methanesulfonyl-piperazin-1-yl)-2,N-dimethyl-N-(4-trifluoromethyl-benzyl)-butyramide]	0.045
CN(C)c1ccc(CNC(=O)C(C)(CCN2CCCN(S(C)(=O)=O)CC2)c2ccc(Cl)c(Cl)c2)cc1 (stereo not shown) [Example 110, 2-(3,4-Dichloro-phenyl)-N-(4-dimethylamino-benzyl)-4-(4-methanesulfonyl-[1,4]diazepan-1-yl)-2-methyl-butyramide]	0.291
CC(CCN1CCN(S(C)(=O)=O)CC1)(C(=O)N[C@@H](CO)c1ccccc1)c1ccc(Cl)c(Cl)c1 (single isomer, unassigned) [Example 128, (R or S)-2-(3,4-Dichloro-phenyl)-N-((R)-2-hydroxy-1-phenyl-ethyl)-4-(4-methanesulfonyl-piperazin-1-yl)-2-methyl-butyramide]	0.0406
C[C@@H]1CN(CCC(C)(C(=O)NCc2ccc(OC(F)(F)F)cc2)c2ccc(Cl)c(Cl)c2)CCN1S(C)(=O)=O (stereo partly drawn) [Example 53, 2-(3,4-Dichloro-phenyl)-4-((R)-4-methanesulfonyl-3-methyl-piperazin-1-yl)-2-methyl-N-(4-trifluoromethoxy-benzyl)-butyramide]	0.0228
